In patent US20050245399A1, “Pyrazole derivatives as herbicidal compositions containing them” (ISHIHARA SANGYO KAISHA, LTD., priority 2004, published 2005):

Tests used:
Format in all cases: in vivo
[1] = system: barnyardgrass (Echinochloa crus-galli L.): ECHCG; experiment: Test Example 1 pre-emergence herbicidal activity, ECHCG; settings: visually observed 20th to 23rd day after application
Outline: (§1)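 Herbicidal effect in pre-emergence treatment: formulated compound sprayed at 500 L/ha water one day after sowing in upland field soil pots, with visual 0–100% growth-control scores recorded 20–23 days after application.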

[2] = system: crabgrass (Digitaria sanguinalis L.): DIGSA; experiment: Test Example 1 pre-emergence herbicidal activity, DIGSA; settings: visually observed 20th to 23rd day after application
Outline: as §1

[3] = system: green foxtail (Setaria viridis L.): SETVI; experiment: Test Example 1 pre-emergence herbicidal activity, SETVI; settings: visually observed 20th to 23rd day after application
Outline: as §1

[4] = system: redroot pigweed (Amaranthus retroflexus L.): AMARE; experiment: Test Example 1 pre-emergence herbicidal activity, AMARE; settings: visually observed 20th to 23rd day after application
Outline: as §1

[5] = system: prickly sida (Sida spinosa L.): SEDSP; experiment: Test Example 1 pre-emergence herbicidal activity, SIDSP; settings: visually observed 20th to 23rd day after application
Outline: as §1

[6] = system: velvetleaf (Abutilon theophrasti): ABUTH; experiment: Test Example 1 pre-emergence herbicidal activity, ABUTH; settings: visually observed 20th to 23rd day after application
Outline: as §1

[7] = system: rice (Oryza sativa L.): ORYSA; experiment: Test Example 1 pre-emergence herbicidal activity, ORYSA; settings: visually observed 20th to 23rd day after application
Outline: as §1

[8] = system: wheat (Triticum aestivum L.): TRZAX; experiment: Test Example 1 pre-emergence herbicidal activity, TRZAX; settings: visually observed 20th to 23rd day after application
Outline: as §1

[9] = system: corn (Zea mays L.): ZEAMX; experiment: Test Example 1 pre-emergence herbicidal activity, ZEAMX; settings: visually observed 20th to 23rd day after application
Outline: as §1

[10] = system: soybean (Glycine max Merr.): GLXMA; experiment: Test Example 1 pre-emergence herbicidal activity, GLXMA; settings: visually observed 20th to 23rd day after application
Outline: as §1

[11] = system: barnyardgrass (Echinochloa crus-galli L.), ECHCG; experiment: Test Example 2 post-emergence (foliage treatment) herbicidal activity, ECHCG; settings: 63 g a.i./ha
Outline: (§2)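 A small sprayer delivered the diluted WP or EC formulation (500 L/ha water, 0.1% v/v spreader) over emerged seedlings in upland soil pots. Damage relative to untreated plants was graded visually from 0 to 100% three weeks or so later (days 20-23).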

[12] = system: crabgrass (Digitaria sanguinalis L.), DIGSA; experiment: Test Example 2 post-emergence (foliage treatment) herbicidal activity, DIGSA; settings: 63 g a.i./ha
Outline: as §2

[13] = system: green foxtail (Setaria viridis L.), SETVI; experiment: Test Example 2 post-emergence (foliage treatment) herbicidal activity, SETVI; settings: 63 g a.i./ha
Outline: as §2

[14] = system: prickly sida (Sida spinosa L.), SIDSP; experiment: Test Example 2 post-emergence (foliage treatment) herbicidal activity, SIDSP; settings: 63 g a.i./ha
Outline: as §2

[15] = system: velvetleaf (Abutilon theophrasti), ABUTH; experiment: Test Example 2 post-emergence (foliage treatment) herbicidal activity, ABUTH; settings: 63 g a.i./ha
Outline: as §2

[16] = system: rice (Oryza sativa L.), ORYSA; experiment: Test Example 2 post-emergence (foliage treatment) herbicidal activity, ORYSA; settings: 63 g a.i./ha
Outline: as §2

[17] = system: wheat (Triticum aestivum L.), TRZAX; experiment: Test Example 2 post-emergence (foliage treatment) herbicidal activity, TRZAX; settings: 63 g a.i./ha
Outline: as §2

[18] = system: corn (Zea mays L.), ZEAMX; experiment: Test Example 2 post-emergence (foliage treatment) herbicidal activity, ZEAMX; settings: 63 g a.i./ha
Outline: as §2

[19] = system: soybean (Glycine max Merr.), GLXMA; experiment: Test Example 2 post-emergence (foliage treatment) herbicidal activity, GLXMA; settings: 63 g a.i./ha
Outline: as §2

[20] = system: barnyardgrass (Echinochiloa oryzicola: ECHOR); experiment: Test Example 3 water application herbicidal activity (paddy), ECHOR; settings: 63 g a.i./ha, water application under submerged condition at 0.5 leaf stage, visually observed 14th day after application; 0 = untreated control, 100 = complete kill
Description: (§3) Paddy field soil was put into a 1/1,000,000 ha pot and seeds of barnyardgrass (Echinochiloa oryzicola: ECHOR) and japanese bulrush (Scirpus juncoides: SCPJO) were sown and slightly covered with soil. Then the pot was left to stand still in a greenhouse in a state where the depth of flooding water was from 0.5 to 1 cm, and one day later, tubers of japanese ribbon wapato (Sagittaria pygmaea: SA GPY) were planted. Thereafter, the depth of flooding water was maintained at a level of from 3 to 4 cm, and when barnyardgrass and japanese bulrush reached a 0.5 leaf stage, an aqueous diluted solution of a wettable powder or emulsifiable concentrate having the compound of the present invention formulated in accordance with a usual formulation method, was uniformly applied under submerged condition by a pipette so that the dose of the active ingredient would be at a predetermined level. On the other hand, paddy filed soil was put into a 1/1,000,000 ha pot and puddled and leveled, and the depth of flooding water was from 3 to 4 cm. One day later, rice (Oryza sativa L.: ORYSA) of 2 leaf stage was transplanted in a depth of 3 cm. On the 4th day after the transplantation, the compound of the present invention was applied in the same manner as described above. On the 14th day after the application of the herbicide, the growth of barnyardgrass, japanese burlush and japanese ribbon wapato was visually observed and on the 21st day after the application of the herbicide, the growth of rice was visually observed, and the herbicidal effects were evaluated by growth controlling degrees (%) ranging from 0 (equivalent to the untreated control) to 100 (complete kill), whereby the results shown in Table 6, were obtained. Compound Nos. in Table 6 correspond to Compound Nos. in Table 1 and 2 given hereinbefore.

[21] = system: japanese bulrush (Scirpus juncoides: SCPJO); experiment: Test Example 3 water application herbicidal activity (paddy), SCPJO; settings: 63 g a.i./ha, water application under submerged condition at 0.5 leaf stage, visually observed 14th day after application; 0 = untreated control, 100 = complete kill
Description: as §3

[22] = system: japanese ribbon wapato (Sagittaria pygmaea: SA GPY); experiment: Test Example 3 water application herbicidal activity (paddy), SAGPY; settings: 63 g a.i./ha, water application under submerged condition, tubers planted, visually observed 14th day after application; 0 = untreated control, 100 = complete kill
Description: as §3

[23] = system: rice (Oryza sativa L.: ORYSA); experiment: Test Example 3 water application herbicidal activity (paddy), transplanted rice ORYSA; settings: 63 g a.i./ha, water application 4th day after transplantation of 2 leaf stage rice, visually observed 21st day after application; 0 = untreated control, 100 = complete kill
Description: as §3

[24] = system: redroot pigweed (Amaranthus retroflexus L.), AMARE; experiment: Test Example 2 post-emergence (foliage treatment) herbicidal activity, AMARE; settings: 63 g a.i./ha
Outline: as §2

Compound	Pre-emergence Herbicidal Activity ECHCG (growth controlling degree) ([1]; Rate 125 g a.i./ha)	Pre-emergence Herbicidal Activity DIGSP (growth controlling degree) ([2]; Rate 125 g a.i./ha)	Pre-emergence Herbicidal Activity SETVI (growth controlling degree) ([3]; Rate 125 g a.i./ha)	Pre-emergence Herbicidal Activity AMARE (growth controlling degree) ([4]; Rate 125 g a.i./ha)	Pre-emergence Herbicidal Activity SIDSP (growth controlling degree) ([5]; Rate 125 g a.i./ha)	Pre-emergence Herbicidal Activity ABUTH (growth controlling degree) ([6]; Rate 125 g a.i./ha)	Pre-emergence Herbicidal Activity ORYSA (growth controlling degree) ([7]; Rate 125 g a.i./ha)	Pre-emergence Herbicidal Activity TRZAX (growth controlling degree) ([8]; Rate 125 g a.i./ha)	growth controlling degree, ECHCO [11]	growth controlling degree, DIGSP [12]	growth controlling degree, SETVI [13]	growth controlling degree, SIDSP [14]	growth controlling degree, ABUTH [15]	growth controlling degree, ORYSA [16]	growth controlling degree, TRZAX [17]	growth controlling degree, ZEAMX [18]	growth controlling degree, GLXMA [19]	growth controlling degrees (%) ECHOR [20]	growth controlling degrees (%) SCPJO [21]	growth controlling degrees (%) ORYSA [23]	other results
COc1c(Cl)cc(F)c(-c2nn(C)c(OC(F)F)c2Cl)c1N(C(=O)OCCCl)C(=O)OCCCl [Compound 1-52]	0%	30%	50%	100%	0%	0%	0%	0%	50%	30%	30%	90%	80%	40%	10%	10%	30%	100%	50%	20%	Pre-emergence Herbicidal Activity ZEAMX (growth controlling degree) ([9]; Rate 125 g a.i./ha): 0%; Pre-emergence Herbicidal Activity GLXMA (growth controlling degree) ([10]; Rate 125 g a.i./ha): 0%; growth controlling degrees (%) SAGPY [22]: 0%
Cn1nc(-c2c(F)cc(Cl)c(OC(F)F)c2N(C=O)Cc2ccccc2)c(Cl)c1OC(F)F [Compound 1-86]	0%	0%	0%	30%	0%	0%	0%	0%	0%	30%	10%	60%	0%	0%	0%	0%	40%	60%	50%	10%	Pre-emergence Herbicidal Activity ZEAMX (growth controlling degree) ([9]; Rate 125 g a.i./ha): 0%; Pre-emergence Herbicidal Activity GLXMA (growth controlling degree) ([10]; Rate 125 g a.i./ha): 0%; growth controlling degree, AMARE [24]: 100%
COc1c(Cl)cc(F)c(-c2nn(C)c(OC(F)F)c2Cl)c1NC(=O)OCC(C)C [Compound 1-64]	–	–	–	–	–	–	–	–	90%	70%	100%	100%	100%	30%	30%	30%	50%	100%	70%	40%	Pre-emergence Herbicidal Activity ECHCG (growth controlling degree) ([1]; Rate 63 g a.i./ha): 40%; Pre-emergence Herbicidal Activity DIGSP (growth controlling degree) ([2]; Rate 63 g a.i./ha): 90%; Pre-emergence Herbicidal Activity SETVI (growth controlling degree) ([3]; Rate 63 g a.i./ha): 80%; Pre-emergence Herbicidal Activity AMARE (growth controlling degree) ([4]; Rate 63 g a.i./ha): 100%; Pre-emergence Herbicidal Activity SIDSP (growth controlling degree) ([5]; Rate 63 g a.i./ha): 80%; Pre-emergence Herbicidal Activity ABUTH (growth controlling degree) ([6]; Rate 63 g a.i./ha): 60%; Pre-emergence Herbicidal Activity ORYSA (growth controlling degree) ([7]; Rate 63 g a.i./ha): 10%; Pre-emergence Herbicidal Activity TRZAX (growth controlling degree) ([8]; Rate 63 g a.i./ha): 10%; Pre-emergence Herbicidal Activity ZEAMX (growth controlling degree) ([9]; Rate 63 g a.i./ha): 0%; Pre-emergence Herbicidal Activity GLXMA (growth controlling degree) ([10]; Rate 63 g a.i./ha): 0%; growth controlling degree, AMARE [24]: 100%
[3-chloro-6-[4-chloro-5-(difluoromethoxy)-1-methyl-1H-pyrazol-3-yl]-5-fluoro-2-methoxyphenyl]2-propynyl-formamide [Compound 1-7]	70%	100%	95%	100%	90%	80%	20%	20%	50%	10%	70%	100%	100%	40%	10%	40%	50%	95%	60%	20%	Pre-emergence Herbicidal Activity ZEAMX (growth controlling degree) ([9]; Rate 125 g a.i./ha): 0%; Pre-emergence Herbicidal Activity GLXMA (growth controlling degree) ([10]; Rate 125 g a.i./ha): 10%; growth controlling degrees (%) SAGPY [22]: 0%
Cn1nc(-c2c(F)cc(Cl)c(OC(F)F)c2NS(C)(=O)=O)c(Cl)c1OC(F)F [Compound 1-84]	–	–	–	–	–	–	–	–	20%	0%	10%	70%	80%	10%	0%	20%	50%	60%	90%	30%	Pre-emergence Herbicidal Activity ECHCG (growth controlling degree) ([1]; Rate 63 g a.i./ha): 0%; Pre-emergence Herbicidal Activity DIGSP (growth controlling degree) ([2]; Rate 63 g a.i./ha): 50%; Pre-emergence Herbicidal Activity SETVI (growth controlling degree) ([3]; Rate 63 g a.i./ha): 20%; Pre-emergence Herbicidal Activity AMARE (growth controlling degree) ([4]; Rate 63 g a.i./ha): 70%; Pre-emergence Herbicidal Activity SIDSP (growth controlling degree) ([5]; Rate 63 g a.i./ha): 0%; Pre-emergence Herbicidal Activity ABUTH (growth controlling degree) ([6]; Rate 63 g a.i./ha): 0%; Pre-emergence Herbicidal Activity ORYSA (growth controlling degree) ([7]; Rate 63 g a.i./ha): 10%; Pre-emergence Herbicidal Activity TRZAX (growth controlling degree) ([8]; Rate 63 g a.i./ha): 0%; Pre-emergence Herbicidal Activity ZEAMX (growth controlling degree) ([9]; Rate 63 g a.i./ha): 0%; Pre-emergence Herbicidal Activity GLXMA (growth controlling degree) ([10]; Rate 63 g a.i./ha): 0%; growth controlling degrees (%) SAGPY [22]: 95%
